# Results reported in article PMC5063977 (The Journal of Biological Chemistry, 2016).
# Key:
# [1] = target: T1, RAMP1-CLR (CGRP receptor) (Homo sapiens, UniProt O60894+Q16602); test: (Ca^2+)i mobilization, HEK-293 cells, RAMP1 + CLR; format: cell-based; conditions: HEK293, percentage of maximal (Ca^2+)i release with 10 μM ionomycin, mean ± S.E., n = 5
# T1 construct: FLAG; expressed in transfected cells; host or cells: HEK-293 or HEK-293S cells, transient transfection, 1:1 RAMP:CLR
# Protocol: HEK-293 cells were transfected with FuGENE 6 (Roche Applied Science) in accordance with the manufacturer's instructions using a 1:3 (w:v) DNA:FuGENE ratio and a 1:1 ratio of RAMP to CLR. […] The transfected cell lines were grown for 24–48 h prior to assaying.
# Transfected HEK-293 cells were grown to confluence in black, clear bottomed, 96-well plates. […] Cells were then washed followed by the addition of 100 μl of Ca^2+-free Hanks' balanced salt solution. […] Recordings were obtained every 0.5 s for 120 s. Peak magnitude was calculated using five-point smoothing followed by correction against background fluorescence. The peak was used to generate concentration-response curves and normalized relative to 10 μM ionomycin.
# Data analysis for cAMP assays was performed in GraphPad Prism 6.0f (San Diego, CA). […] These values were then used to quantify signaling bias as change in log (τ/Ka) relative to the natural cognate ligand for the respective receptor ([41]). […] Statistical differences were analyzed using one-way ANOVA or Student's t test as appropriate with post hoc Bonferroni's or Dunnett's multiple comparisons, and p < 0.05 was considered significant. […] To quantitate the ligand-dependent response in the yeast system, a strain lacking GPA1 (MMY11), grown in rich medium, was used as a standard ([72]). […]
# [2] = target: T1, RAMP1-CLR (CGRP receptor); test: S. cerevisiae growth assay, GPA1/Gαs chimera, RAMP1 + CLR; format: cell-based; conditions: percentage of yeast strain MMY11 (lacking GPA1); 20 h; mean ± S.E., n = 6
# Protocol: FIGURE 1. […] Reporter gene activity was determined following 20 h of stimulation with each ligand. Data are expressed as a percentage of the maximum response observed in yeast strain MMY11 (lacking GPA1) and are means ± S.E. of n individual data sets. […] Data were determined as statistically different from the cognate ligand for each receptor (*, p < 0.05; **, p < 0.01; ***, p < 0.001) using a one-way ANOVA with Bonferroni's post-test.
# General yeast procedures were performed as described previously ([22], [24]). The human CLR was introduced into yeast cells under the control of the PGK promoter using a plasmid containing ura3 (pDT-PGK). […] Receptor signaling was measured using the yeast growth assay as described previously ([24]). […] A fluorescein signal was detected as an increase in fluorescence (excitation wavelength = 485 nm, emission wavelength = 535 nm) as a measure of growth. Different concentrations of ligand (0.01 nM–100 μM) were assayed using 96-well plates, and fluorescence was detected using a Tecan Infinite M200 microplate reader (Tecan Ultra Evolution, Reading, UK) or a Mithras LB 940 microplate reader (Berthold Technologies, Harpenden, UK) for 20 h.
# Data analysis for cAMP assays was performed in GraphPad Prism 6.0f (San Diego, CA). […] To quantitate the ligand-dependent response in the yeast system, a strain lacking GPA1 (MMY11), grown in rich medium, was used as a standard ([72]). […]
# T1 sequence (Q16602 23-461): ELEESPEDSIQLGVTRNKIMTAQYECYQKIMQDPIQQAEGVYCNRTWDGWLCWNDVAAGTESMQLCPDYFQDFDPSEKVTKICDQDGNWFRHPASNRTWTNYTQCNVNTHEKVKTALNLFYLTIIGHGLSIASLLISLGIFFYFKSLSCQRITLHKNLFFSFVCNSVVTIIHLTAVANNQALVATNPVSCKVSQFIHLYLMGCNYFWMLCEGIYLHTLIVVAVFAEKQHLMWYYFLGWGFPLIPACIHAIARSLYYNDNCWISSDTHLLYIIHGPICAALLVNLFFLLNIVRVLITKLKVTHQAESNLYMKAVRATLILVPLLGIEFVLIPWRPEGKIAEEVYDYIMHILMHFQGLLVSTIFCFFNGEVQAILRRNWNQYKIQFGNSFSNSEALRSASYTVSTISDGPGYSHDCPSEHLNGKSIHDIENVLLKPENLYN
# T1 sequence (O60894 27-148): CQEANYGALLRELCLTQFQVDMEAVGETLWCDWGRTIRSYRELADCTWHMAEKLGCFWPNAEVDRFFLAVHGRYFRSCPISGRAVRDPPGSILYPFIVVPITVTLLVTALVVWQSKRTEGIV
compound,measurement,setting,value
"CC[C@H](C)[C@H](NC(=O)[C@H](CCC(N)=O)NC(=O)[C@H](Cc1c[nH]cn1)NC(=O)[C@H](C)NC(=O)[C@H](CC(C)C)NC(=O)[C@H](CCCCN)NC(=O)[C@H](CCC(N)=O)NC(=O)[C@@H](NC(=O)[C@@H](NC(=O)[C@@H]1CSSC[C@H](NC(=O)CNC(=O)[C@H](Cc2ccccc2)NC(=O)[C@H](CO)NC(=O)[C@H](CCCNC(=N)N)NC(=O)[C@H](CC(C)C)NC(=O)CNC(=O)[C@H](CCC(N)=O)NC(=O)[C@H](Cc2ccccc2)NC(=O)[C@H](CC(N)=O)NC(=O)[C@H](CC(N)=O)NC(=O)[C@H](CCSC)NC(=O)[C@H](CO)NC(=O)[C@H](CCC(N)=O)NC(=O)[C@H](CCCNC(=N)N)NC(=O)[C@@H](N)Cc2ccc(O)cc2)C(=O)N[C@@H](CCCNC(=N)N)C(=O)N[C@@H](Cc2ccccc2)C(=O)NCC(=O)N[C@@H]([C@@H](C)O)C(=O)N1)[C@@H](C)O)C(C)C)C(=O)N[C@@H](Cc1ccc(O)cc1)C(=O)N[C@@H](CCC(N)=O)C(=O)N[C@@H](Cc1ccccc1)C(=O)N[C@H](C(=O)N[C@@H](CC(=O)O)C(=O)N[C@@H](CCCCN)C(=O)N[C@@H](CC(=O)O)C(=O)N[C@@H](CCCCN)C(=O)N[C@@H](CC(=O)O)C(=O)N[C@@H](CC(N)=O)C(=O)N[C@H](C(=O)N[C@@H](C)C(=O)N1CCC[C@H]1C(=O)N[C@@H](CCCNC(=N)N)C(=O)N[C@@H](CO)C(=O)N[C@@H](CCCCN)C(=O)N[C@H](C(=O)N[C@@H](CO)C(=O)N1CCC[C@H]1C(=O)N[C@@H](CCC(N)=O)C(=O)NCC(=O)N[C@@H](Cc1ccc(O)cc1)C(N)=O)[C@@H](C)CC)C(C)C)[C@@H](C)O [AM, adrenomedullin]",Emax,[1],37 ± 3.5%
same,Emax,[2],20.4 ± 2.8%
